The nature of data set [1]: Assay (V): chemical stability assessment by RP-UPLC. It is filed as physicochemical. The settings on record: 14 days at 37° C. in phosphate buffer (pH 7.3). Here is the method: Assay (V): Chemical Stability Assessment
The purpose of this assay is to assess the chemical stability of the GLP-1 derivatives of the present invention in aqueous solutions.
Chemical stability of GLP-1 derivatives may be investigated by RP-UPLC separation and UV detection. Lyophilized samples are dissolved in a 8 mM Phosphate buffer pH 8.6, followed by adjustment to pH 7.3 using HCl to a final concentration of 333 μM. Samples are incubated for 14 days at 5° C. and 37° C. followed by RP-UPLC analysis. Purity is defined as the area percentage of the main peak in relation to the total area of all integrated peaks in each chromatogram. Purity loss, also referred to herein as chemical degradation, after 14 days at 37° C. is determined as the difference in purity between the samples incubated at 5° C. and 37° C., divided by the purity of the sample after incubation for 14 days at 5° C.
RP-UPLC analysis is performed using a Waters BEH130 2.1 mm×150 mm, 1.7 μm column operated at 50° C. and a flow rate of 0.4 mL/min using a mobile phase system consisting of A: 0.05% TFA in MQ-water, and B: 0.05% TFA in Acetonitrile. UV-detection is performed at 215 nm. The typical gradient profile used for most of the samples is shown below.
For some individual derivatives eluting at substantially different retention times compared with the majority of derivatives, some adjustments to the gradient profile are made to better enable purity assessment comparison across samples.

The target of the next data set is T1, human GLP-1 receptor (Homo sapiens, UniProt P43220).
T1 construct: expressed in transfected cells; host or cells: membranes of BHK cells, parent line BHKTS13, clone FCW467-12A
In words: Assay (I)(a): GLP-1 receptor potency, CRE luciferase reporter gene assay in BHK cells. It is filed as cell-based. The settings on record: BHK cells expressing human GLP-1 receptor, read-out: EC50 GLP-1R. In outline:
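BHK cells (clone FCW467-12A/KZ10-1), 5×10EE3/well, exposed 3 h at 37° C to compound at 1×10EE-13 to 1×10EE-6 M final in medium with 2% ovalbumin and 0.2% Pluronic F-68. Luciferase luminescence read; EC50 (pM) from four-parameter fit.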
(In general: Reporter assays use an easily measured gene product as a stand-in for the process of interest.)

The target in the next data set is T2, human glucagon receptor (Homo sapiens, UniProt P47871).
T2 construct: expressed in transfected cells; host or cells: membranes of BHK cells, clone BHK hGCGR A3*25
Briefly: Assay (II)(b): glucagon receptor binding, [125I]-glucagon displacement, SPA on BHK membranes. The note with it: displacement of [125I]-glucagon, membranes with human glucagon receptor; read-out: IC50 GlucagonR. As for the experimental part: Assay (II): GLP-1 and Glucagon Receptor Binding The purpose of this assay is to test the in vitro receptor binding activity of the GLP-1 derivatives of the invention. (b) Glucagon Receptor Binding The glucagon receptor (glucagonR) binding activity is a measure of affinity of a derivative for the human glucagon receptor. The glucagon receptor binding of each derivative were determined with competitive binding, displacing [^125I]-glucagon bound to glucagon receptors expressed in cell membranes associated with wheat germ agglutinin (WGA) scintillation proximity assay (SPA) beads. Each derivative was added in a series of concentrations to isolated membranes comprising the human glucagon receptor and displacement of the labelled ligand was monitored. The receptor binding was reported as the concentration at which half of the labelled ligand is displaced from the receptor, the IC^50 value. The following chemicals were used in the assay: DMEM w Glutamax (Gibco 61965-026), Pen/strep (Invitrogen 15140-122), G418 (Invitrogen 10131-027), Versene (Gibco 15040), 1 M Hepes (Gibco 15630), PBS (Invitrogen 14190-094), fetal calf serum (Invitrogen 16140-071), MgCl2 (Merck 1.05832.1000), EDTA (Invitrogen 15575-038), CaCl2 (Sigma, C5080), Tween 20 (Amresco 0850C335), ovalbumin (Sigma A5503), SPA particles (wheat germ agglutinin (WGA) SPA beads, Perkin Elmer RPNQ0001), [125I]-glucagon (produced in-house), OptiPlate™-96 (Packard 6005290). HME buffer consisted of 25 mM HEPES, 2 mM MgCl2 and 1 mM EDTA, and pH was adjusted to 7.4. Assay buffer consisted of 50 mM HEPES supplemented with 5 mM MgCl2, 1 mM CaCl2, 0.02% Tween 20 and 0.1% Ovalbumin, and pH was adjusted to 7.4. The cells used in this assay (clone BHK hGCGR A3*25) were BHK cells stable transfected with an expression plasmid comprising the cDNA encoding the human glucagon receptor. The cells were grown at 5% CO2 in DMEM, 10% fetal calf serum, 1% Pen/Strep (Penicillin/Streptomycin) and 1.0 mg/ml of the selection marker G418. To make a membrane preparation the cells were grown to approximately 80% confluence. The cells were washed twice in phosphate-buffered saline and harvested. The cells were pelleted using a brief centrifugation and the cell pellet was kept on ice. Lyse the cells by adding approx. 5 ml HME buffer, mix by pipetting and snap freeze in liquid nitrogen. Thaw quickly and add HME buffer to 10 ml. The cell pellet was homogenised with an ULTRA-THURRAX dispersing instrument for 20-30 seconds. The homogenate was centrifuged at 20.000×G, 4° C. for 10 minutes. The pellet was resuspended (homogenised) in 1-2 ml HME buffer. The protein concentration was determined. The membranes were aliquoted and snapfrozen in liquid nitrogen and stored at minus 80° C. • 1. For the receptor binding assay 50 μl of the assay buffer was added to each well of an assay plate. • 2. Test compounds were serially diluted to give the following concentrations: 8×10EE-7 M, 8×10EE-8 M, 8×10EE-9 M, 8×10EE-10 M, 8×10EE-11 M, 8×10EE-12 M and 8×10EE-13 M. Twenty-five μl were added to appropriate wells in the assay plate. • 3. Cell membrane aliquots were thawed and diluted to their working concentration. Fifty μl were added to each well in the assay plate. • 4. WGA SPA beads were suspended in assay buffer at 20 mg/ml. The suspension was diluted to 10 mg/ml in assay buffer just prior to addition to the assay plate. Fifty μl were added to each well in the assay plate. • 5. The incubation was started by adding 25 μl of 480 pM solution of [125I]-glucagon to each well of the assay plate. A 25 μl aliquot was reserved for measuring total counts/well. • 6. The assay plate was incubated for 2 h at 25° C. • 7. The assay plate was centrifuged for 10 min at 1500 rpm. • 8. The assay plate was read in a Perkin Elmer TopCount NXT instrument. Calculations The data from the TopCount instrument were transferred to GraphPad Prism software. The software averaged the values for the replicates and performed a non-linear regression. […]

*1 amine or outer side, *2 acyl side, *3 side chain or, on linkers, in order; H or OH if unused. Where a SMILES comes first, the peptide text is derived from it. Bridges are numbered along the chain shown (N, C = ends). Roman numbers before positions name the chains, in order. Side-chain parts run from the residue outwards. [ ]: non-standard residue; d: D form. The star is where a group is joined. C18 diacid = O=C(O)CCCCCCCCCCCCCCCCC(=O)*; γGlu = O=C(O)[C@H](CCC(=O)[*:2])N[*:1]; Desaminohistidyl = O=C(CCc1c[nH]cn1)*; Ac4c = NC1(C(=O)O)CCC1; AEEA = NCCOCCOCC(=O)O; Aib = CC(C)(N)C(=O)O

T1 sequence (P43220 24-463): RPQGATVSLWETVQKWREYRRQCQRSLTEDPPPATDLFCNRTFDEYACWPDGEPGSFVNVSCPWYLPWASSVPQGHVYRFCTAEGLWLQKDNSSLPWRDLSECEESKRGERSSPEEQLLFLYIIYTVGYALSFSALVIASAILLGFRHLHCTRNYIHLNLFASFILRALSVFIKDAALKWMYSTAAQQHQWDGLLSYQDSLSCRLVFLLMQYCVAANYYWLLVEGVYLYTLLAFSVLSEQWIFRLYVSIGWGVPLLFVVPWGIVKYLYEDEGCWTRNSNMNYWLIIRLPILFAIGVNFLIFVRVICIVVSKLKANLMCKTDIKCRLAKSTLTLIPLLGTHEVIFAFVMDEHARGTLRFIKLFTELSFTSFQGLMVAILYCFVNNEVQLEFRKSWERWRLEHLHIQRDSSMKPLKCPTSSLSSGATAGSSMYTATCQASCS
T2 sequence (P47871 26-477): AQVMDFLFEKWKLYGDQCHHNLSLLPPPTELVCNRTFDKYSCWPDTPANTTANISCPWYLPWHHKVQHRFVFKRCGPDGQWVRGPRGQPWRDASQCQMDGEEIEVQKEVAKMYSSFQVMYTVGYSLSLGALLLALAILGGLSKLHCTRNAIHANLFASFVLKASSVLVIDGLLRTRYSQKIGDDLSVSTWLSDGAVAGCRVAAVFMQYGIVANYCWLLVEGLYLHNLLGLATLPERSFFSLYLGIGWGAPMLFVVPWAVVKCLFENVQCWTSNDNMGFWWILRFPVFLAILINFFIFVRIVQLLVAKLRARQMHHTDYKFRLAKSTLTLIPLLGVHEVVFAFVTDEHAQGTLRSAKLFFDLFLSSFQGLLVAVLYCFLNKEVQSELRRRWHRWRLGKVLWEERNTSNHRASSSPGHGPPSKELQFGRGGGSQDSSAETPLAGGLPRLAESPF

Usually EC50 stands for the midpoint of the concentration-response curve. Turning to `CC[C@H](C)[C@H](NC(=O)[C@H](Cc1ccccc1)NC(=O)[C@H](CCC(=O)O)NC(=O)[C@H](CCCNC(=N)N)NC(=O)[C@H](C)NC(=O)[C@H](C)NC(=O)[C@H](CCC(N)=O)NC(=O)[C@H](CCC(=O)O)NC(=O)[C@H](CCC(=O)O)NC(=O)[C@H](CC(C)C)NC(=O)[C@H](Cc1ccc(O)cc1)NC(=O)[C@H](CCCCN)NC(=O)[C@H](CO)NC(=O)[C@H](Cc1ccc(O)cc1)NC(=O)[C@H](CC(=O)O)NC(=O)[C@H](CO)NC(=O)[C@@H](NC(=O)[C@H](Cc1ccccc1)NC(=O)[C@@H](NC(=O)CNC(=O)[C@H](Cc1c[nH]cn1)NC(=O)C1(NC(=O)CCc2c[nH]cn2)CCC1)[C@@H](C)O)[C@@H](C)O)C(=O)N[C@@H](C)C(=O)N[C@@H](Cc1c[nH]c2ccccc12)C(=O)N[C@@H](CC(C)C)C(=O)N[C@@H](CC(C)C)C(=O)N[C@@H](CCCCN)C(=O)N[C@@H](CCCCNC(=O)CC[C@H](NC(=O)COCCOCCNC(=O)CC[C@H](NC(=O)COCCOCCNC(=O)CC[C@H](NC(=O)COCCOCCNC(=O)CC[C@H](NC(=O)CC[C@H](NC(=O)CCCCCCCCCCCCCCCCC(=O)O)C(=O)O)C(=O)O)C(=O)O)C(=O)O)C(=O)O)C(N)=O` [Example 21, N^ε35-[(4S)-4-carboxy-4-[[2-[2-[2-[[(4S)-4-carboxy-4-[[2-[2-[2-[[(4S)-4-carboxy-4-[[2-[2-[2-[[(4S)-4-carboxy-4-[[(4S)-4-carboxy-4-(17-carboxyheptadecanoylamino)butanoyl]amino]butanoyl]amino]ethoxy]ethoxy]acetyl]amino]butanoyl]amino]ethoxy]ethoxy]acetyl]amino]butanoyl]amino]ethoxy]ethoxy]acetyl]amino]butanoyl]-[Imp7,Acb8,His9,Tyr16,Lys18,Glu22,Arg26,Leu33,Lys35]-GLP-1-(7-35)-peptide amide] (Desaminohistidyl-[Ac4c]HGTFTSDYSKYLEEQAAREFIAWLLKK([γGlu-AEEA-γGlu-AEEA-γGlu-AEEA-γGlu-γGlu-C18 diacid])-NH2), in data set [1], the “Chemical stability: Chemical degradation over 14 days at 37° C.” value is reported as 1.6%. Moreover, the EC50 at human GLP-1 receptor stood at 3 pM. Broadly, the IC50 is the midpoint of a concentration-inhibition curve. Regarding `CC[C@H](C)[C@H](NC(=O)[C@H](Cc1ccccc1)NC(=O)[C@H](CCC(=O)O)NC(=O)[C@H](CCCNC(=N)N)NC(=O)[C@H](C)NC(=O)[C@H](C)NC(=O)[C@H](CCC(N)=O)NC(=O)[C@H](CCC(=O)O)NC(=O)[C@H](CCC(=O)O)NC(=O)[C@H](CC(C)C)NC(=O)[C@H](Cc1ccc(O)cc1)NC(=O)[C@H](CCCCN)NC(=O)[C@H](CO)NC(=O)[C@@H](NC(=O)[C@H](CC(=O)O)NC(=O)[C@H](CO)NC(=O)[C@@H](NC(=O)[C@H](Cc1ccccc1)NC(=O)[C@@H](NC(=O)CNC(=O)[C@H](Cc1c[nH]cn1)NC(=O)C(C)(C)NC(=O)CCc1c[nH]cn1)[C@@H](C)O)[C@@H](C)O)C(C)C)C(=O)N[C@@H](C)C(=O)N[C@@H](Cc1c[nH]c2ccccc12)C(=O)N[C@@H](CC(C)C)C(=O)N[C@@H](CC(C)C)C(=O)N[C@@H](CCCCNC(=O)CNC(=O)[C@H](CO)NC(=O)[C@H](CCC(=O)O)NC(=O)CNC(=O)[C@H](CO)NC(=O)CC[C@H](NC(=O)CC[C@H](NC(=O)CCCCCCCCCCCCCCCCC(=O)O)C(=O)O)C(=O)O)C(=O)N[C@H](C(=O)O)[C@@H](C)O` [Example 25, N^ε34-[2-[[(2S)-2-[[(2S)-4-carboxy-2-[[2-[[(2S)-2-[[(4S)-4-carboxy-4-[[(4S)-4-carboxy-4-(17-carboxyheptadecanoylamino)butanoyl]amino]butanoyl]amino]-3-hydroxypropanoyl]amino]acetyl]amino]butanoyl]amino]-3-hydroxypropanoyl]amino]acetyl]-[Imp7,Aib8,His9,Lys18,Glu22,Arg26,Leu33,Thr35]-GLP-1-(7-35)-peptide] (I: Desaminohistidyl-[Aib]HGTFTSDVSKYLEEQAAREFIAWLLKT-OH / II: {C18 diacid-γGlu-γGlu}-SGESG; amide I:27-II:C), the IC50 on human glucagon receptor was 18800 pM. With `CC[C@H](C)[C@H](NC(=O)[C@H](Cc1ccccc1)NC(=O)[C@H](CCC(=O)O)NC(=O)[C@H](CCCNC(=N)N)NC(=O)[C@H](C)NC(=O)[C@H](C)NC(=O)[C@H](CCCNC(=N)N)NC(=O)[C@H](CCCNC(=N)N)NC(=O)[C@H](CCC(=O)O)NC(=O)[C@H](CC(C)C)NC(=O)[C@H](Cc1ccc(O)cc1)NC(=O)[C@H](CCCCN)NC(=O)[C@H](CO)NC(=O)[C@H](Cc1ccc(O)cc1)NC(=O)[C@H](CC(=O)O)NC(=O)[C@H](CO)NC(=O)[C@@H](NC(=O)[C@H](Cc1ccccc1)NC(=O)[C@@H](NC(=O)CNC(=O)[C@H](Cc1c[nH]cn1)NC(=O)C1(NC(=O)CCc2c[nH]cn2)CCC1)[C@@H](C)O)[C@@H](C)O)C(=O)N[C@@H](C)C(=O)N[C@@H](Cc1c[nH]c2ccccc12)C(=O)N[C@@H](CC(C)C)C(=O)N[C@@H](CC(C)C)C(=O)N[C@@H](CCCCN)C(=O)N[C@@H](CCCCNC(=O)CC[C@H](NC(=O)COCCOCCNC(=O)CC[C@H](NC(=O)COCCOCCNC(=O)CC[C@H](NC(=O)COCCOCCNC(=O)CC[C@H](NC(=O)CC[C@H](NC(=O)CCCCCCCCCCCCCCCCC(=O)O)C(=O)O)C(=O)O)C(=O)O)C(=O)O)C(=O)O)C(N)=O` [Example 24, N^ε35-[(4S)-4-carboxy-4-[[2-[2-[2-[[(4S)-4-carboxy-4-[[2-[2-[2-[[(4S)-4-carboxy-4-[[2-[2-[2-[[(4S)-4-carboxy-4-[[(4S)-4-carboxy-4-(17-carboxyheptadecanoylamino)butanoyl]amino]butanoyl]amino]ethoxy]ethoxy]acetyl]amino]butanoyl]amino]ethoxy]ethoxy]acetyl]amino]butanoyl]amino]ethoxy]ethoxy]acetyl]amino]butanoyl]-[Imp7,Acb8,His9,Tyr16,Lys18,Arg22,Arg23,Arg26, Leu33, Lys35]-GLP-1-(7-35)-peptide amide] (Desaminohistidyl-[Ac4c]HGTFTSDYSKYLERRAAREFIAWLLKK([γGlu-AEEA-γGlu-AEEA-γGlu-AEEA-γGlu-γGlu-C18 diacid])-NH2), the “Chemical stability: Chemical degradation over 14 days at 37° C.” value in data set [1] amounted to 2.2%. In addition, the EC50 at human GLP-1 receptor was 8 pM.

Source of the values: US9988430B2, “Stable GLP-1 based GLP-1/glucagon receptor co-agonists” (Novo Nordisk A/S, priority 2014, dated 2018).
